How the values were obtained:
Type in all cases: biochemical
[1] = biological target: T1, Human recombinant MMP-2 (Homo sapiens, UniProt P08253); experiment: In vitro MMP inhibition analysis (fluorogenic peptide substrate), MMP-2; details: human recombinant enzyme; 4 μM substrate (A); apparent Ki without substrate correction
T1 construct: made in house; host or cells: MMP-2-transfected p2AHT2 cells
T1 sequence (P08253 110-660): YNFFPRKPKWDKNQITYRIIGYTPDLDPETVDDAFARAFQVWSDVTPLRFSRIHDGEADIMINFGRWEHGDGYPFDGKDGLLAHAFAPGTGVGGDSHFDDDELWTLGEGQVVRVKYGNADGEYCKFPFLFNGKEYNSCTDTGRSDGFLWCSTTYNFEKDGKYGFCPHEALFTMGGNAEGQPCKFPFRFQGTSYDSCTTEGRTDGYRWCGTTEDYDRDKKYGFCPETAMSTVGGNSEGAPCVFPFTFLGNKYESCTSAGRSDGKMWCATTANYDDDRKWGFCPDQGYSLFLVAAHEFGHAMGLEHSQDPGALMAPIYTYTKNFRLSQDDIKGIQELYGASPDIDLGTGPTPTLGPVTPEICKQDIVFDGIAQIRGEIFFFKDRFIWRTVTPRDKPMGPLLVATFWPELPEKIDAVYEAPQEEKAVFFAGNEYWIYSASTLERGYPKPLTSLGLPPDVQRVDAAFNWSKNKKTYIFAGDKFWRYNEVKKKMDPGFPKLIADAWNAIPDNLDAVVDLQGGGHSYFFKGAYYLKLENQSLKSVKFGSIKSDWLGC
Experimental: (§1) Several compounds and salts were analyzed in an in vitro assay to determine their ability to inhibit the MMP cleavage of peptide substrates. Inhibition constant (Ki) were calculated from the assayed compound-MMP interactions.
(§2) Human recombinant MMP-1, MMP-2, MMP-9, MMP-13, and MMP-14 were used in this assay. All enzymes were prepared in Assignee's laboratories following usual laboratory procedures. Protocols for the preparation and use of these enzymes are available in the scientific literature. See, e.g., Enzyme Nomenclature (Academic Press, San Diego, Calif., 1992) (and the citations therein). See also, Freije et al., J. Biol. Chem., 269(24), 16766-16773 (1994).
The MMP-2 proenzyme was purified by gelatin Sepharose chromatography from MMP-2- transfected p2AHT2 cells provided by Dr. Gregory Goldberg of Washington University (St. Louis, Mo.).
(§3) All MMPs were activated using 4-aminophenylmercuric acetate (“APMA”, Sigma Chemical, St. Louis, Mo.) or trypsin. MMP-9 also was activated using human recombinant MMP-3 (purified in Assignee's laboratory following standard cloning and purification techniques).
(§4) The following fluorogenic, methoxycoumarin-containing polypeptide substrate (A) was used in the MMP inhibition assays:
(§5) MCA-ArgProLeuGlyLeuDpaAlaArgGluArgNH2 (A)
(§6) “MCA” is 7-methoxycoumarin-4-yl acetyl. Substrate (A) was prepared Assignee's laboratory. In the absence of MMP inhibitory activity, the substrate is cleaved at the Gly-Leu peptide bond. This cleavage separates the highly fluorogenic peptide from the 2,4-dinitrophenyl quencher, thus resulting in increase of fluorescent intensity.
(§7) The stock solutions of the assayed compounds and salts were prepared in 1% dimethyl sulfoxide (DMSO). These stock solutions were diluted in Buffer A (100 mM Tris-HCl, 100 mM NaCl, 10 mM CaCl2, 0.05% polyoxyethylene 23 lauryl ether, pH 7.5) to obtain solutions with different compound concentrations, i.e., assay solutions with different concentrations of the assayed MMP inhibitory compound. The experiment controls contained the same amount of Buffer A/DMSO as the assayed sample, but contained none of the tested compound or salt.
(§8) The assays from which the Ki determinations were made were performed as follows. The assayed compound samples were incubated in separate wells of untreated white polystyrene plates (Nunc Nalgene International, Rochester, N.Y.), and analyzed on a Tecan SpectraFlour Plus plate reader. The excitation wavelength was 330 nm, and the emission wavelength -420 nm. All samples (assayed compounds and controls) were incubated in separate plate wells at room temperature for 1 hr in the presence of 4 μM of MMP substrate (A). In the absence of MMP inhibitory activity, substrate (A) was cleaved at the Gly-Leu bond resulting in an increase of relative fluorescence. Inhibition was observed as a reduced rate of this increase in relative fluorescence. […] This protocol is a modification of method by Knight et al., FEBS Lett., 296(3), 263-266 (1992). Apparent inhibitory constants were determined by non-linear regression of reaction velocity as a function of inhibitor and enzyme concentration using Morrison's equation, as described by Kuzmic, P., et al., Anal. Biochem., 286(1):45-50 (2000). Modifications were made in the non-linear regression method to allow a common control reaction rate and effective enzyme concentration to be shared between all dose-response relationships on a given assay plate. Since the substrate concentration was chosen to be at or below the Km, the apparent Ki's from this analysis were reported as Ki's without correction for the influence of substrate.
(§9) The above protocols were used to determine MMP inhibition Ki constants for the compounds in Examples 1, 2, and 4-42 above. All Ki values in Table 3 are given in nM units.

[2] = biological target: T2, Human recombinant MMP-14 (Homo sapiens, UniProt P50281); experiment: In vitro MMP inhibition analysis (fluorogenic peptide substrate), MMP-14; details: human recombinant catalytic domain; 4 μM substrate (A); apparent Ki without substrate correction
T2 construct: The catalytic domain enzyme was expressed in E. Coli inclusion bodies; made in house
Experimental: as §1, §2
The MMP-14 full length cDNA was provided by Dr. Gregory Goldberg of Washington University (St. Louis, Mo.). The catalytic domain enzyme was expressed in E. Coli inclusion bodies, solubilized in urea, purified on a preparative […] reverse phase HPLC column, and then refolded in the presence of zinc acetate and purified for use.
as §3, §4, §5, §6, §7, §8, §9

[3] = biological target: T3, Human recombinant MMP-9 (Homo sapiens, UniProt P14780); experiment: In vitro MMP inhibition analysis (fluorogenic peptide substrate), MMP-9; details: human recombinant enzyme; 4 μM substrate (A); apparent Ki without substrate correction
T3 construct: made in house; host or cells: MMP-9-transfected HT1080 cells (spent media)
Experimental: as §1, §2
The MMP-9 proenzyme was purified by gelatin Sepharose chromatography from spent media of MMP-9-transfected HT1080 cells provided by Dr. Howard Welgus of Washington University (St. Louis, Mo.).
as §3, §4, §5, §6, §7, §8, §9

T3 sequence (P14780 107-707 limits assumed): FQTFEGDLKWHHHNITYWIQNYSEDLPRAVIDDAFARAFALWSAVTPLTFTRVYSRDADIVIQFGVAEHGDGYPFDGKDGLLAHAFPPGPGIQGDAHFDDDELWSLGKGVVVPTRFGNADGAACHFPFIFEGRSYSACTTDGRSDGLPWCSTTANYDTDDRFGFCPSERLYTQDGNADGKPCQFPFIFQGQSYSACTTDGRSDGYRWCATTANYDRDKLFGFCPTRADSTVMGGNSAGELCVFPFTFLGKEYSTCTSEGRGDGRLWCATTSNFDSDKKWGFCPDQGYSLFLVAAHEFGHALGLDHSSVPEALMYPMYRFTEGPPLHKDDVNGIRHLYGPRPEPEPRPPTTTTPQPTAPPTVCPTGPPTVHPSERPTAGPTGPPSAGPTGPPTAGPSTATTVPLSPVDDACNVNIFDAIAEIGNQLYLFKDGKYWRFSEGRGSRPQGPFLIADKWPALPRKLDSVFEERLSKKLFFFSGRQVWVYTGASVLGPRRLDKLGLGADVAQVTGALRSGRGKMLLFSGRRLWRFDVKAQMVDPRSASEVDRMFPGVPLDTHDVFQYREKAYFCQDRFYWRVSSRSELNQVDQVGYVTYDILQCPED

SMILES | Ki [1] | Ki [2] | Ki [3]
CCCCOc1ccc(-c2ccc(S(=O)(=O)C3(C(=O)NO)CCOCC3)s2)cc1 [Example 43] | 0.483 nM | 466 nM | 0.806 nM
O=C(NO)C1(S(=O)(=O)c2ccc(-c3ccc(OC(F)(F)C(F)F)cc3)s2)CCOCC1 [Example 44] | 0.173 nM | 429 nM | 0.354 nM
O=C(NO)C1(S(=O)(=O)c2ccc(-c3ccc(OCC(F)(F)F)cc3)nc2)CCOCC1 [Example 46] | 0.367 nM | 852 nM | 0.988 nM
O=C(NO)C1(S(=O)(=O)c2ccc(-c3ccc(OC(F)(F)C(F)F)cc3)nc2)CCOCC1 [Example 47] | 0.274 nM | 2130 nM | 1.53 nM
O=C(NO)C1(S(=O)(=O)c2ccc(-c3ccc(CCC(F)(F)C(F)(F)F)cn3)s2)CCOCC1 [Example 49] | 3.14 nM | 9250 nM | 10.2 nM
O=C(NO)C1(S(=O)(=O)c2ccc(-c3ccc(C(F)(F)F)cn3)s2)CCOCC1 [Example 50] | 29.4 nM | 2820 nM | 133 nM
O=C(NO)C1(S(=O)(=O)c2ccc3nc(-c4ccc(OC(F)(F)F)cc4)sc3c2)CCOCC1 [Example 51] | 2.07 nM | 3330 nM | 0.636 nM
CCCCc1ccc(C(=O)C2CCN(c3nc4ccc(S(=O)(=O)C5(C(=O)NO)CCOCC5)cc4s3)CC2)s1 [Example 52] | 76.3 nM | > 10000 nM | 837 nM
CCCc1ccc(-c2nc3ccc(S(=O)(=O)C4(C(=O)NO)CCOCC4)cc3s2)cc1 [Example 53] | 3.52 nM | > 10000 nM | 12.8 nM
O=C(NO)C1(S(=O)(=O)c2ccc3nc(-c4cccc(C(F)(F)F)c4)sc3c2)CCOCC1 [Example 55] | 621 nM | > 10000 nM | 3310 nM
O=C(NO)C1(S(=O)(=O)c2ccc3nc(N4CCC(Oc5ccc(OC(F)(F)F)cc5)CC4)sc3c2)CCOCC1 [Example 56] | 40.3 nM | 798 nM | 68.5 nM
O=C(NO)C1(S(=O)(=O)c2ccc3nc(-c4ccc(C(F)(F)F)cc4)sc3c2)CCOCC1 [Example 57] | 1.86 nM | 2160 nM | 0.964 nM
O=C(NO)C1(S(=O)(=O)c2ccc3nc(-c4ccc(Cl)s4)sc3c2)CCOCC1 [Example 59] | 2.01 nM | 927 nM | 5.09 nM
O=C(NO)C1(S(=O)(=O)c2ccc3nc(-c4ccc(F)cc4F)sc3c2)CCOCC1 [Example 61] | 14.8 nM | > 10000 nM | 21.5 nM
O=C(NO)C1(S(=O)(=O)c2ccc3nc(-c4ccsc4)sc3c2)CCOCC1 [Example 62] | 4.83 nM | 355 nM | 40.5 nM
O=C(NO)C1(S(=O)(=O)c2ccc(-c3ccc(CCC(F)(F)C(F)(F)F)cc3)nc2)CCOCC1 [Example 69] | 0.766 nM | 5070 nM | 8.93 nM
CC(C)CN(C)C(=O)Cc1ccc(-c2ccc(S(=O)(=O)C3(C(=O)NO)CCOCC3)cn2)cc1 [Example 71] | 553 nM | > 10000 nM | > 10000 nM
O=C(Cc1ccc(-c2ccc(S(=O)(=O)C3(C(=O)NO)CCOCC3)cn2)cc1)N1CCCCC1 [Example 72] | 305 nM | > 10000 nM | 7770 nM
CCCCN(C)C(=O)Cc1ccc(-c2ccc(S(=O)(=O)C3(C(=O)NO)CCOCC3)cn2)cc1 [Example 74] | 387 nM | > 10000 nM | 4930 nM
CCCCNC(=O)c1ccc(-c2ccc(S(=O)(=O)C3(C(=O)NO)CCOCC3)cn2)cc1 [Example 76] | 26.3 nM | > 10000 nM | 428 nM

Further compounds by falling Ki [1], results first:

Ki [1] | Ki [2] | Ki [3] | SMILES
1840 nM | > 10000 nM | > 10000 nM | CCCCc1ccc(C(=O)C2CCN(c3ccc(S(=O)(=O)C4(C(=O)NO)CCOCC4)cn3)CC2)s1 [Example 70]
151 nM | 3830 nM | 799 nM | O=C(NO)C1(S(=O)(=O)c2ccc3nc(-n4cnc(-c5ccccc5)c4)sc3c2)CCOCC1 [Example 64]
91.8 nM | > 10000 nM | 2220 nM | CCCCNC(=O)Cc1ccc(-c2ccc(S(=O)(=O)C3(C(=O)NO)CCOCC3)cn2)cc1 [Example 73]
35.4 nM | > 10000 nM | 99 nM | CC(C)Cc1ncc(-c2nc3ccc(S(=O)(=O)C4(C(=O)NO)CCOCC4)cc3s2)s1 [Example 54]
10.3 nM | 707 nM | 14.1 nM | O=C(NO)C1(S(=O)(=O)c2ccc3nc(-c4ccc(F)c(F)c4)sc3c2)CCOCC1 [Example 60]
4.43 nM | 686 nM | 7.2 nM | O=C(NO)C1(S(=O)(=O)c2ccc3nc(-c4ccc5c(c4)OCO5)sc3c2)CCOCC1 [Example 65]
2.76 nM | 3600 nM | 0.471 nM | O=C(NO)C1(S(=O)(=O)c2ccc3nc(-c4ccc(SC(F)(F)F)cc4)sc3c2)CCOCC1 [Example 67]
2.25 nM | 4230 nM | 0.624 nM | COCCN1CCC(C(=O)NO)(S(=O)(=O)c2ccc3nc(-c4ccc(OC(F)(F)F)cc4)sc3c2)CC1 [Example 63]
2.21 nM | > 312 nM | 3.37 nM | CCOc1ccc(-c2nc3ccc(S(=O)(=O)C4(C(=O)NO)CCOCC4)cc3s2)cc1 [Example 66]
2.08 nM | 3490 nM | 8.96 nM | CCCCCc1ccc(-c2ccc(S(=O)(=O)C3(C(=O)NO)CCOCC3)cn2)cc1 [Example 45]
1.51 nM | 2500 nM | 1.06 nM | CCc1ccc(-c2nc3ccc(S(=O)(=O)C4(C(=O)NO)CCOCC4)cc3s2)cc1 [Example 58]
0.665 nM | 2450 nM | 2.82 nM | O=C(NO)C1(S(=O)(=O)c2ccc(-c3ccc(CCC(F)(F)F)cc3)nc2)CCOCC1 [Example 68]
0.222 nM | 1850 nM | 1.06 nM | O=C(NO)C1(S(=O)(=O)c2ccc(-c3ccc(OC(F)(F)C(F)F)cc3)nc2)CCOCC1 [Example 48]
0.218 nM | > 10000 nM | 0.159 nM | CN(C(=O)Cc1ccc(-c2ccc(S(=O)(=O)C3(C(=O)NO)CCOCC3)cn2)cc1)c1ccc(OC(F)(F)F)cc1 [Example 75]

From US20040142979A1, “Heteroarylsulfonylmethyl hydroxamic acids and amides and their use as protease inhibitors” (priority 2002, published 2004)
